PubChem BioAssay AID743505 (Broad Institute, 2014)
Calls of active or inactive are those of the source.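 How the source made its calls: active means dose curve with falling signal and an AC50 no higher than twice the top valid tested dose; inconclusive means flat curve with 30 to 70% inhibition, or a poor fit; inactive means rising signal, flat weak curve, or AC50 over that limit.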

Molecular target: Melanocortin receptor 4 (Homo sapiens) (UniProt P32245)
Assay: MC4R antagonists in CRE-luciferase reporter cells, dose response, counter-screen for LGR2 antagonist project, cell-based, HEK293, luminescence, dry powder (AID 743505)
Details: antagonist mode; for activity change, negative = inhibition: at 35 µM (top of the series)

Sequence of Melanocortin receptor 4 (Homo sapiens) (P32245 whole entry, looked up): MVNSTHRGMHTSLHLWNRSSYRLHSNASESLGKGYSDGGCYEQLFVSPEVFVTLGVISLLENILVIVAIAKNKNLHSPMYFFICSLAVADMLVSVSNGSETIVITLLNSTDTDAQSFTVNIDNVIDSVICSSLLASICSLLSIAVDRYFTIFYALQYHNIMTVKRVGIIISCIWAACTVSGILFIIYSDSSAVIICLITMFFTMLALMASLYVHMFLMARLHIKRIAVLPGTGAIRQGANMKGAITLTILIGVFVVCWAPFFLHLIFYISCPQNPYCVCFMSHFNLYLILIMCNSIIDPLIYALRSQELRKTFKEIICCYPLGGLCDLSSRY

Row | Structure (SMILES) | activity change, negative = inhibition | AC50
1 | Cc1ccc(NC(=O)N(C)C[C@@H]2OCCCC[C@H](C)Oc3ccc(NC(=O)C4CCCCC4)cc3C(=O)N([C@H](C)CO)C[C@@H]2C)cc1 | inactive | 
2 | C[C@H](CO)N1C[C@H](C)[C@H](CN(C)C(=O)Nc2ccc(F)cc2)OCCCC[C@H](C)Oc2ccc(NC(=O)C3CCOCC3)cc2C1=O | inactive | 
3 | C[C@H]1CCCCO[C@@H](CN(C)C(=O)Nc2ccc(C(F)(F)F)cc2)[C@@H](C)CN([C@@H](C)CO)C(=O)c2cc(NC(=O)CCC(F)(F)F)ccc2O1 | inactive | 
4 | C[C@H](CO)N1C[C@H](C)[C@H](CN(C)C(=O)Nc2ccc(C(F)(F)F)cc2)OCCCC[C@H](C)Oc2ccc(NC(=O)NC3CCCCC3)cc2C1=O | inactive | 
5 | C[C@H]1CCCCO[C@@H](CN(C)C(=O)Nc2cccc3ccccc23)[C@@H](C)CN([C@@H](C)CO)C(=O)c2cc(NC(=O)C3CCCCC3)ccc2O1 | inactive | 
6 | C[C@H](CO)N1C[C@H](C)[C@H](CN(C)C(=O)Nc2cccc(F)c2)OCCCC[C@H](C)Oc2ccc(NC(=O)C3CCCCC3)cc2C1=O | inactive | 
7 | C[C@H](CO)N1C[C@H](C)[C@H](CN(C)C(=O)Nc2ccc(F)cc2)OCCCC[C@H](C)Oc2ccc(NC(=O)C3CCCCC3)cc2C1=O | inactive | 
8 | COc1ccc(NC(=O)N(C)C[C@@H]2OCCCC[C@H](C)Oc3ccc(NC(=O)C4CCCCC4)cc3C(=O)N([C@H](C)CO)C[C@@H]2C)cc1 | inactive | 
9 | C[C@H](CO)N1C[C@H](C)[C@H](CN(C)C(=O)Nc2ccc(F)cc2)OCCCC[C@H](C)Oc2ccc(NC(=O)NC3CCCCC3)cc2C1=O | inactive | 
10 | C[C@H](CO)N1C[C@H](C)[C@H](CN(C)C(=O)Nc2cccc3ccccc23)OCCCC[C@H](C)Oc2ccc(NC(=O)CCC(F)(F)F)cc2C1=O | inactive | 
11 | C[C@H](CO)N1C[C@H](C)[C@H](CN(C)C(=O)Nc2ccc(Cl)cc2)OCCCC[C@H](C)Oc2ccc(NC(=O)C3CCCCC3)cc2C1=O | inactive | 
12 | C[C@@H]1CN([C@H](C)CO)C(=O)c2cc(NC(=O)C3CCCCC3)ccc2O[C@@H](C)CCCCO[C@@H]1CN(C)C(=O)Nc1cccc2ccccc12 | inactive | 
13 | C[C@@H]1CCCCO[C@@H](CN(C)C(=O)Nc2cccc3ccccc23)[C@H](C)CN([C@@H](C)CO)C(=O)c2cc(NC(=O)C3CCCCC3)ccc2O1 |  | > 70 µM (inactive)
14 | C[C@@H]1CCCCO[C@@H](CN(C)C(=O)Nc2cccc3ccccc23)[C@H](C)CN([C@H](C)CO)C(=O)c2cc(NC(=O)C3CCCCC3)ccc2O1 |  | 7.91 µM
15 | C[C@H](CO)N1C[C@H](C)[C@H](CN(C)C(=O)Nc2ccccc2)OCCCC[C@H](C)Oc2ccc(NC(=O)NC3CCCCC3)cc2C1=O | inactive | 
16 | C[C@H](CO)N1C[C@H](C)[C@H](CN(C)C(=O)Nc2ccc(C(F)(F)F)cc2)OCCCC[C@H](C)Oc2ccc(NC(=O)CCC(F)(F)F)cc2C1=O | inactive | 

Row | Structure (SMILES) | activity change, negative = inhibition | AC50
17 | COc1ccc(NC(=O)N(C)C[C@@H]2OCCCC[C@H](C)Oc3ccc(NC(=O)NC4CCCCC4)cc3C(=O)N([C@H](C)CO)C[C@@H]2C)cc1 | inactive | 
18 | C[C@H]1CCCCO[C@@H](CN(C)S(=O)(=O)c2ccc(Cl)cc2)[C@@H](C)CN([C@@H](C)CO)C(=O)c2cc(NC(=O)NC3CCCCC3)ccc2O1 |  | > 70 µM (inactive)
19 | COc1ccc(S(=O)(=O)N(C)C[C@@H]2OCCCC[C@H](C)Oc3ccc(NS(=O)(=O)c4ccc(F)cc4)cc3C(=O)N([C@@H](C)CO)C[C@@H]2C)cc1 | inactive | 
20 | C[C@H](CO)N1C[C@H](C)[C@H](CN(C)C(=O)Nc2ccc(F)cc2)OCCCC[C@H](C)Oc2ccc(NC(=O)C3CCCCCC3)cc2C1=O | inactive | 
21 | C[C@@H]1CCCCO[C@H](CN(C)C(=O)Nc2cccc3ccccc23)[C@H](C)CN([C@H](C)CO)C(=O)c2cc(NC(=O)C3CCCCC3)ccc2O1 | inactive | 
22 | C[C@@H]1CCCCO[C@H](CN(C)C(=O)Nc2cccc3ccccc23)[C@H](C)CN([C@@H](C)CO)C(=O)c2cc(NC(=O)C3CCCCC3)ccc2O1 | inactive | 
23 | C[C@@H]1CN([C@@H](C)CO)C(=O)c2cc(NC(=O)C3CCCCC3)ccc2O[C@@H](C)CCCCO[C@H]1CN(C)C(=O)Nc1cccc2ccccc12 | inactive | 
24 | C[C@@H]1CCCCO[C@@H](CN(C)C(=O)Nc2cccc3ccccc23)[C@@H](C)CN([C@H](C)CO)C(=O)c2cc(NC(=O)C3CCCCC3)ccc2O1 | inactive | 
25 | C[C@H](CO)N1C[C@H](C)[C@H](CN(C)C(=O)Nc2ccc3c(c2)OCO3)OCCCC[C@H](C)Oc2ccc(NC(=O)C3CCCCC3)cc2C1=O | inactive | 
26 | C[C@H](CO)N1C[C@H](C)[C@H](CN(C)C(=O)Nc2ccc(F)cc2)OCCCC[C@H](C)Oc2ccc(NC(=O)Nc3ccc(F)cc3)cc2C1=O | inactive | 
27 | C[C@H](CO)N1C[C@H](C)[C@H](CN(C)C(=O)Nc2ccccc2)OCCCC[C@H](C)Oc2ccc(NC(=O)Nc3ccccc3)cc2C1=O | inactive | 
28 | C[C@@H]1CCCCO[C@H](CN(C)C(=O)Nc2cccc3ccccc23)[C@@H](C)CN([C@@H](C)CO)C(=O)c2cc(NC(=O)C3CCCCC3)ccc2O1 | inactive | 
29 | C[C@@H]1CN([C@H](C)CO)C(=O)c2cc(NC(=O)C3CCCCC3)ccc2O[C@@H](C)CCCCO[C@H]1CN(C)C(=O)Nc1cccc2ccccc12 | inactive | 
30 | C[C@H](CO)N1C[C@H](C)[C@H](CN(C)C(=O)Nc2ccc(F)cc2)OCCCC[C@H](C)Oc2ccc(NC(=O)C3CC3)cc2C1=O | inactive | 
31 | C[C@H](CO)N1C[C@H](C)[C@H](CN(C)C(=O)Nc2ccccc2)OCCCC[C@H](C)Oc2ccc(NC(=O)Nc3ccc4c(c3)OCO4)cc2C1=O | inactive | 
32 | C[C@H](CO)N1C[C@H](C)[C@H](CN(C)C(=O)Nc2cccc3ccccc23)OCCCC[C@H](C)Oc2ccc(NC(=O)C3CCCCC3)cc2C1=O | inactive | 

Continued, values first:

Row | activity change, negative = inhibition | AC50 | Structure (SMILES)
33 | inactive |  | C[C@H](CO)N1C[C@H](C)[C@H](CN(C)C(=O)Nc2ccc3c(c2)OCO3)OCCCC[C@H](C)Oc2ccc(NC(=O)NC3CCCCC3)cc2C1=O
34 | inactive |  | C[C@H](CO)N1C[C@H](C)[C@H](CN(C)C(=O)Nc2ccccc2)OCCCC[C@H](C)Oc2ccc(NC(=O)C3CCCCC3)cc2C1=O
35 | inactive |  | CC(C)(C)c1ccc(-c2nc(-c3ccncc3)no2)cc1
36 | inactive |  | C[C@H]1CCCCO[C@@H](CN(C)C(=O)Nc2ccc3c(c2)OCO3)[C@@H](C)CN([C@@H](C)CO)C(=O)c2cc(NC(=O)NC3CCCCC3)ccc2O1
37 | inactive |  | C[C@H]1CCCCO[C@@H](CN(C)C(=O)Nc2ccccc2)[C@@H](C)CN([C@@H](C)CO)C(=O)c2cc(NC(=O)NC3CCCCC3)ccc2O1
38 |  | > 70 µM (inactive) | C[C@@H]1CCCCO[C@H](CN(C)C(=O)Nc2cccc3ccccc23)[C@@H](C)CN([C@H](C)CO)C(=O)c2cc(NC(=O)C3CCCCC3)ccc2O1
39 | inactive |  | C[C@H](CO)N1C[C@H](C)[C@H](CN(C)C(=O)Nc2ccccc2)OCCCC[C@H](C)Oc2ccc(NC(=O)CCC(F)(F)F)cc2C1=O
40 | inactive |  | C[C@H](CO)N1C[C@H](C)[C@H](CN(C)C(=O)Nc2ccc3ccccc3c2)OCCCC[C@H](C)Oc2ccc(NC(=O)C3CCCCC3)cc2C1=O
41 | inactive |  | C[C@H](CO)N1C[C@H](C)[C@H](CN(C)C(=O)Nc2ccc(F)cc2)OCCCC[C@H](C)Oc2ccc(NC(=O)Nc3ccccc3)cc2C1=O
42 | inactive |  | C[C@H]1CCCCO[C@@H](CN(C)C(=O)Nc2ccc(F)cc2)[C@@H](C)CN([C@@H](C)CO)C(=O)c2cc(NC(=O)C3CCCCC3)ccc2O1
43 | inactive |  | C[C@H](CO)N1C[C@H](C)[C@@H](CN(C)C(=O)Nc2cccc3ccccc23)OCCCC[C@H](C)Oc2ccc(NC(=O)C3CCCCC3)cc2C1=O
44 | inactive |  | C[C@H](CO)N1C[C@H](C)[C@H](CN(C)C(=O)Nc2cccc3ccccc23)OCCCC[C@H](C)Oc2ccc(NC(=O)NC3CCCCC3)cc2C1=O
45 | inactive |  | C[C@H](CO)N1C[C@H](C)[C@H](CN(C)C(=O)Nc2ccc(F)cc2)OCCCC[C@H](C)Oc2ccc(NC(=O)C3CCCC3)cc2C1=O
46 | inactive |  | C[C@H](CO)N1C[C@H](C)[C@H](CN(C)C(=O)Nc2cccc3ccccc23)OCCCC[C@H](C)Oc2ccc(NC(=O)c3ccccc3)cc2C1=O
47 | inactive |  | CC(=O)Nc1ccc2c(c1)C(=O)N([C@H](C)CO)C[C@H](C)[C@H](CN(C)C(=O)Nc1ccc(F)cc1)OCCCC[C@H](C)O2
48 | inactive |  | C[C@H](CO)N1C[C@H](C)[C@H](CN(C)C(=O)Nc2ccc(F)cc2)OCCCC[C@H](C)Oc2ccc(NC(=O)C3CCC3)cc2C1=O
49 | inactive |  | C[C@H]1CCCCO[C@H](CN(C)C(=O)Nc2cccc3ccccc23)[C@@H](C)CN([C@@H](C)CO)C(=O)c2cc(NC(=O)C3CCCCC3)ccc2O1
50 | inactive |  | C[C@@H]1CN([C@@H](C)CO)C(=O)c2cc(NC(=O)C3CCCCC3)ccc2O[C@@H](C)CCCCO[C@@H]1CN(C)C(=O)Nc1cccc2ccccc12
51 | inactive |  | C[C@H](CO)N1C[C@H](C)[C@H](CN(C)C(=O)Nc2ccccc2F)OCCCC[C@H](C)Oc2ccc(NC(=O)C3CCCCC3)cc2C1=O
